ChEMBL document CHEMBL1140322, “New pyrrolo[2,1-f]purine-2,4-dione and imidazo[2,1-f]purine-2,4-dione derivatives as potent and selective human A3 adenosine receptor antagonists” (J Med Chem, 2005)

Assays:
Adenosine receptor A1 = biological target: T1, Adenosine receptor A1 (Homo sapiens, UniProt P30542); assay: Inhibition of [3H]DPCPX binding to human adenosine A1 receptor expressed in CHO cells; format: cell-based
T1 sequence (P30542 whole entry): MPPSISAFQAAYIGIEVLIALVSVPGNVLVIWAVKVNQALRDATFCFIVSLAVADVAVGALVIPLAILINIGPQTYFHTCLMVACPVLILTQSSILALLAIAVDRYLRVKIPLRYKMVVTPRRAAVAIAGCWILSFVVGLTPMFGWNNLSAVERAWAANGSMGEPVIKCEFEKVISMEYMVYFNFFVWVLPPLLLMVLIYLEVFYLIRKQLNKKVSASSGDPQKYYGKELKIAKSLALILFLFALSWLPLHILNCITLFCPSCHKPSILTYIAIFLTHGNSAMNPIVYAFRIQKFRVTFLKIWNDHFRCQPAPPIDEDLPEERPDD

[1] = biological target: Adenosine receptors; A1 & A3 (Homo sapiens) (UniProt P30542+P0DMS8); assay: Relative binding affinity for human adenosine A1 and A3 receptors; format: protein assay
Adenosine receptors; A1 & A3 (Homo sapiens), sequence (P0DMS8 whole entry, looked up, one chain of several): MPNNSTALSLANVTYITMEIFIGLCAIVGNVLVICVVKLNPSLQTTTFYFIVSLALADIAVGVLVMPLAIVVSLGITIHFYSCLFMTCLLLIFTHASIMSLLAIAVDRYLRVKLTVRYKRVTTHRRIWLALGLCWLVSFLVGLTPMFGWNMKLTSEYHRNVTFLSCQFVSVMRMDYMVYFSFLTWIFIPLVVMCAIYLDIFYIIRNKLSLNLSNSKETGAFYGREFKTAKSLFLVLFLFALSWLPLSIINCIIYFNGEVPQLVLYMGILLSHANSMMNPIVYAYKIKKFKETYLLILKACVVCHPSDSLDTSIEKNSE

[2] = biological target: Adenosine receptors; A2a & A3 (Homo sapiens) (UniProt P0DMS8+P29274); assay: Relative binding affinity for human adenosine A2a and A3 receptors; format: protein assay
Adenosine receptor A2a = Adenosine receptor A2a (Homo sapiens, UniProt P29274); assay: Inhibition of [3H]-ZM 241385 binding to human adenosine A2a receptor expressed in CHO cells; format: cell-based
Adenosine receptor A2a, sequence (P29274 whole entry): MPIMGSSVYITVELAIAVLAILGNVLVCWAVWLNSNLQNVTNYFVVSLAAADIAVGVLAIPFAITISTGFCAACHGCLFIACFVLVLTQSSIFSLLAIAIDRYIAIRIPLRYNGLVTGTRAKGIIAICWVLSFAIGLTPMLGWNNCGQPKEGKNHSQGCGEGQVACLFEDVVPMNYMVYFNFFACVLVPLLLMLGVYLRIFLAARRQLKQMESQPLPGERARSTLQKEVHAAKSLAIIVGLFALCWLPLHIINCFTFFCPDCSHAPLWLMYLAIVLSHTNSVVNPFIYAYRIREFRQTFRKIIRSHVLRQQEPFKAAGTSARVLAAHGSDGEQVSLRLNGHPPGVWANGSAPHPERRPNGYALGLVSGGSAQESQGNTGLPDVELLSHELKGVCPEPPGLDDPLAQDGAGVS

Adenosine receptor A2b = biological target: T2, Adenosine receptor A2b (Homo sapiens, UniProt P29275); assay: Inhibition of 100 nM NECA-stimulated cAMP production in CHO cells expressing human adenosine A2B receptor; format: functional, cell-based
T2 sequence (P29275 whole entry): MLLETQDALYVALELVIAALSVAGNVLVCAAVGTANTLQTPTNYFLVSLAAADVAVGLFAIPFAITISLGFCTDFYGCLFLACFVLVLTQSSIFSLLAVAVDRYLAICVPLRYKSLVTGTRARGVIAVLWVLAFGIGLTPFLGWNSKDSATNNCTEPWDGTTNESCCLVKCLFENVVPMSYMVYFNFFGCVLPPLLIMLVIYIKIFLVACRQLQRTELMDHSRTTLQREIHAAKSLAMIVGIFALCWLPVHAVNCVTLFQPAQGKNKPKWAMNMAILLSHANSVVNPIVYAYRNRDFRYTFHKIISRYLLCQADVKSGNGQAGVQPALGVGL

[3] = biological target: Adenosine receptors; A2b & A3 (Homo sapiens) (UniProt P29275+P0DMS8); assay: Relative binding affinity for human adenosine A2b and A3 receptors; format: protein assay

| SMILES | Ki (Adenosine receptor A1) | Selectivity [1] | Selectivity [2] | Ki (Adenosine receptor A2a) | IC50 (Adenosine receptor A2b) | Selectivity [3] |
| --- | --- | --- | --- | --- | --- | --- |
| CCCn1c(=O)c2c(nc3n2CC(c2ccccc2)=C3)n(Cc2ccccc2)c1=O | > 1 µM | > 5 | > 5 | > 1 µM | – | – |
| CCCn1c(=O)c2c(nc3[nH]c(C)cn32)n(Cc2ccccc2)c1=O | – | – | – | – | > 1 µM | – |
| CCCn1c(=O)c2c(nc3[nH]c(C4CC4)cn32)n(Cc2ccccc2)c1=O | – | 15 | > 44 | > 1 µM | > 1 µM | > 44 |
| CCCn1c(=O)c2c(nc3[nH]c(-c4ccc(OC)cc4)cn32)n(Cc2ccccc2)c1=O | > 1 µM | > 18 | > 18 | > 1 µM | – | – |
| CCCn1c(=O)c2c(nc3n2C(C)C(C)=C3)n(Cc2ccccc2)c1=O (stereo not given) | > 1 µM | > 13 | > 13 | > 1 µM | > 1 µM | > 13 |
| CCCn1c(=O)c2c(nc3[nH]c(-c4ccccc4)cn32)n(Cc2ccccc2)c1=O | > 1 µM | > 9 | > 9 | > 1 µM | – | – |
| CCCn1c(=O)c2c(nc3n2CC(C)=C3)n(Cc2ccccc2)c1=O | > 1 µM | > 125 | > 125 | > 1 µM | – | 50 |
| CCCn1c(=O)c2c(nc3[nH]c(C(C)C)cn32)n(Cc2ccccc2)c1=O | – | > 15 | > 32 | > 1 µM | > 1 µM | > 32 |
| CCCn1c(=O)c2c(nc3[nH]c(C)c(C)n32)n(Cc2ccccc2)c1=O | > 1 µM | > 28 | > 28 | > 1 µM | > 1 µM | > 28 |
| CCCn1c(=O)c2c(nc3[nH]c(-c4ccc(F)cc4)cn32)n(Cc2ccccc2)c1=O | > 1 µM | > 45 | > 45 | > 1 µM | – | – |
| CCCn1c(=O)c2c(nc3[nH]c(CC)cn32)n(Cc2ccccc2)c1=O | > 1 µM | > 67 | > 67 | > 1 µM | > 1 µM | > 67 |
| CCCn1c(=O)c2c(nc3n2CC(CC)=C3)n(Cc2ccccc2)c1=O | – | – | – | – | > 1 µM | – |
| CCCn1c(=O)c2c(nc3[nH]c(-c4ccc(-c5ccccc5)cc4)cn32)n(Cc2ccccc2)c1=O | > 1 µM | – | – | > 1 µM | – | – |
| CCCn1c(=O)c2c(nc3[nH]c(C(C)(C)C)cn32)n(Cc2ccccc2)c1=O | > 1 µM | > 10 | > 10 | > 1 µM | > 1 µM | > 10 |
| CCCn1c(=O)c2c(nc3[nH]c(C4CCCCC4)cn32)n(Cc2ccccc2)c1=O | > 1 µM | > 2 | > 2 | > 1 µM | > 1 µM | – |
| CCCn1c(=O)c2c(nc3[nH]c(CC)c(C)n32)n(Cc2ccccc2)c1=O | > 1 µM | > 17 | > 17 | > 1 µM | > 1 µM | > 17 |
